From patent US20250360101A1, “OSTEOCLAST DIFFERENTIATION INHIBITOR CONTAINING UROLITHIN” (DAICEL CORPORATION, priority 2020, published 2025)

Legend:
[1] = tested on: mouse bone marrow-derived hematopoietic stem cells; experiment: Osteoclast differentiation inhibition test (M-CSF/RANKL induction, TRAP staining) from hematopoietic stem cells; format: cell-based; conditions: for number of osteoclasts (relative value): 8 days culture, ratio of TRAP-stained area to sample-free group (Comparative Example = 100%); for Osteoclast differentiation (significance vs Comparative Example): Tukey's test, P not more than 0.1%
Protocol: (§1) In the present Examples, statistical analysis was carried out using commercially available software (StatMate3, ATMS). Except for Example 3 and Comparative Example 3, Tukey's test was used for comparison in terms of the action and effect. In all tests, a significant difference was assumed at a P value of not more than 0.1%. In Example 3 and Comparative Example 3, Dunnett's test was used for comparison in terms of the action and effect. A significant difference was assumed at a P-value of not more than 1%.
Mouse femurs and tibias were removed, and a portion of about 2 mm was removed from each bone end by cutting. The long bones were placed in a 0.2-mL microtube, and centrifuged at 2000×g, followed by collecting bone marrow fluid. After suspending the bone marrow fluid in 4 ml of α-MEM medium (#. 11900-016, Gibco) supplemented with 10% FBS (JBS-011115), the resulting suspension was plated on a 6-cm dish. After incubating the plate at 37° C. under 5% CO2 for 24 hours, the medium was collected. The floating cells in the medium were isolated as hematopoietic stem cells.
The isolated mouse bone marrow-derived hematopoietic stem cells were plated on a 96-well plate at 4.0×10^4 cells/well. At the same time as the plating, 30 ng/ML M-CSF (macrophage-colony stimulating factor, R&D Systems) and 50 ng/mL RANKL (receptor activator of nuclear factor κ-B ligand, PeproTech Inc.) as inducers of differentiation into osteoclasts were added to all wells. Together with the differentiation inducers, urolithin A (1, 10, or 25 μM) was added. Culture was carried out by leaving the plate to stand in an incubator at 37° C. under 5% CO2 for 8 days. The medium in each well was removed, and the cells were fixed by being left to stand in […] Mildform for 10 minutes, followed by three times of washing with pure water. Thereafter, 50 μL of TRAP staining solution (SIGMA) was added to each well, and the plate was incubated in a shaded state for 1 hour at 37° C. The TRAP staining solution in each well was discarded, and the well was washed with pure water, followed by adding 50 μL of Mayer's hematoxylin solution thereto. The plated was left to stand for 2 minutes to perform nuclear staining. The plate was washed 10 times with pure water, and then dried for one or more days. The total number of multinucleated osteoclasts having three or more nuclei present on each well was counted. The stained image was scanned using a scanner (EPSON, GT-X970, 800 pixels/inch), and the stained area was measured using image analysis software Image J.
The same operation as in Example 1 was carried out except that urolithin A was not added.
The ratio of the stained area in each sample-addition group (Example 1) to the stained area in the sample-free group (Comparative Example 1) was calculated to determine the number of osteoclasts (relative value). […] The conditions marked with “*” in Table 2 and FIG. 1 are the conditions under which the significant differences were found compared to Comparative Example 1.
The same operation as in Example 1 was carried out except that urolithin B was used instead of urolithin A, and that urolithin B was added at 25 or 50 μM.
The same operation as in Example 1 was carried out except that urolithin B was not added.
The ratio of the stained area in each sample-addition group (Example 2) to the stained area in the sample-free group (Comparative Example 2) was calculated to determine the number of osteoclasts (relative value). […] The condition marked with “*” in Table 3 and FIG. 2 is the condition under which the significant difference was found compared to Comparative Example 2.

[2] = tested on: macrophages prepared by differentiation from the isolated mouse bone marrow-derived hematopoietic stem cells; experiment: Osteoclast differentiation inhibition test (M-CSF/RANKL induction, TRAP staining) from macrophages; format: cell-based; conditions: 10 μM; 3 days culture; ratio of TRAP-stained area to sample-free group (Comparative Example 3 = 100%)
Protocol: as §1
Mouse femurs and tibias were removed, and a portion of about 2 mm was removed from each bone end by cutting. The long bones were placed in a 0.2-mL microtube, and centrifuged at 2000×g, followed by collecting bone marrow fluid. […]
The macrophages prepared by differentiation from the isolated mouse bone marrow-derived hematopoietic stem cells were plated on a 96-well plate at 4.0×10^4 cells/well. […] The total number of multinucleated osteoclasts having three or more nuclei present on each well was counted. The stained image was scanned using a scanner (EPSON, GT-X970, 800 pixels/inch), and the stained area was measured using image analysis software Image J. […]
The ratio of the stained area in each sample-addition group (Example 3) to the stained area in the sample-free group (Comparative Example 3) was calculated to determine the number of osteoclasts (relative value). […]

| Structure (SMILES) | number of osteoclasts (relative value) ([1]; 1 μM) | number of osteoclasts (relative value) ([1]; 10 μM) | Osteoclast differentiation (significance vs Comparative Example) ([1]; 10 μM) | number of osteoclasts (relative value) ([1]; 25 μM) | Osteoclast differentiation (significance vs Comparative Example) ([1]; 25 μM) | number of osteoclasts (relative value) [2] | number of osteoclasts (relative value) ([1]; 50 μM) |
| --- | --- | --- | --- | --- | --- | --- | --- |
| O=c1oc2cc(O)ccc2c2ccc(O)cc12 [Urolithin A] | 88% ± 9% | 49% ± 6% (*) | significantly inhibited | 26% ± 4% (*) | significantly inhibited | 50% ± 5% (*) |  |
| O=c1oc2cc(O)ccc2c2ccccc12 [Urolithin B] |  |  |  | 87% ± 13% |  |  | 40% ± 5% (*) |
